# According to patent US7388095B2, “5-substituted indole-2-carboxamide derivatives” (Hoffmann-La Roche Inc., priority 2005, dated 2008):
# Target: T1, histamine 3 receptor (H3R) (Homo sapiens, UniProt Q9Y5N1)
# T1 construct: expressed in transfected cells; host or cells: CHO cells (HR3-CHO cell line), membrane preparation
# Experiment: Competition binding assay with 3H-(R)α-methylhistamine on membranes of the human HR3-CHO cell line
# Conditions: 3H(R)α-methylhistamine 1 nM, Ki calculated from IC50 by Cheng-Prusoff equation
# Protocol: Binding assay with ^3H-(R)α-methylhistamine
# Saturation binding experiments were performed using HR3-CHO membranes prepared as described in Takahashi, K, Tokita, S., Kotani, H. (2003) J. Pharmacol. Exp. Therapeutics 307, 213-218.
# An appropriate amount of membrane (60 to 80 μg protein/well) was incubated with increasing concentrations of ^3H(R)α-Methylhistamine di-hydrochloride (0.10 to 10 nM). Non-specific binding was determined using a […] excess of cold (R)α-methylhistamine dihydrobromide (500 nM final concentration). The incubation was carried out at room temperature (in deep-well plates shaking for three hours). The final volume in each well was 250 μl. The incubation was followed by rapid filtration on GF/B filters (pre-soaked with 100 μl of 0.5% PEI in Tris 50 mM shaking at 200 rpm for two hours). The filtration was made using a cell-harvester and the filter plates were then washed five times with ice cold washing buffer containing 0.5 M NaCl. After harvesting, the plates were dried at 55° C. for 60 min, then scintillation fluid (Microscint 40, 40 microl in each well) was added and the amount of radioactivity on the filter was determined with a Packard top-counter after shaking the plates for two hours at 200 rpm at room temperature.
# Binding Buffer: 50 mM Tris-HCl pH 7.4 and 5 mM MgCl2x6H2O pH 7.4. Washing Buffer: 50 mM Tris-HCl pH 7.4 and 5 mM MgCl2x6H2O and 0.5 M NaCl pH 7.4.
# Indirect measurement of affinity of H3R inverse agonists: twelve increasing concentrations (ranging from 10 μM to 0.3 nM) of the selected compounds were always tested in competition binding experiments using membrane of the human HR3-CHO cell line. An appropriate amount of protein, e.g. approximately 500 cpm binding of RAMH at Kd, were incubated for 1 hour at room temperature in 250 μl final volume in 96-well plates in presence of ^3H(R)α-methylhistamine (1 nM final concentration=Kd). […]
# All compounds were tested at a single concentration in duplicates. […] Ki's were calculated from IC50 based on Cheng-Prusoff equation (Cheng, Y, Prusoff, W H (1973) Biochem Pharmacol 22, 3099-3108).
# T1 sequence (Q9Y5N1 whole entry): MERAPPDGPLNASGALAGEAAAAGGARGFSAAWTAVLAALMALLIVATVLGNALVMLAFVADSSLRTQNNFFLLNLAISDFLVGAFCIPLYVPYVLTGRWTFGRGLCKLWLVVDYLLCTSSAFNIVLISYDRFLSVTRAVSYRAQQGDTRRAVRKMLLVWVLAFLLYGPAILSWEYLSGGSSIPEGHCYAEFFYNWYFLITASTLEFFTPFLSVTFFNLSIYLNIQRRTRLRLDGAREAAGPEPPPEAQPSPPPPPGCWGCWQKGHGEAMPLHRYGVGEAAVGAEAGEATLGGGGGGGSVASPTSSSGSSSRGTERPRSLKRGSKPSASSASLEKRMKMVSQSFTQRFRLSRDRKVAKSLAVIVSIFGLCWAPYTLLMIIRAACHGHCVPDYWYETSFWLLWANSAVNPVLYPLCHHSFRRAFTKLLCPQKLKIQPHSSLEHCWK
row,SMILES,Ki [µM]
1,"CC(C)N1CCOC(COc2ccc3c(c2)cc(C(=O)N2CCOCC2)n3CC(F)(F)F)C1 (stereo not drawn) [Example 1, [5-(4-Isoopropyl-morpholin-2-ylmethoxy)-1-(2,2,2-trifluoro-ethyl)-1H-indol-2-yl]-morpholin-4-yl-methanone]",0.03
2,"O=C(c1cc2cc(OCCCN3CC4CC4C3)ccc2[nH]1)N1CCOCC1 (stereo not drawn) [Example 5, {5-[3-(3-Aza-bicyclo[3.1.0]hex-3-yl)-propoxy]-1H-indol-2-yl}-morpholin-4-yl-methanone]",0.04
3,"O=C(c1cc2cc(OCCCN3CC4CC4C3)ccc2n1CC(F)(F)F)N1CCOCC1 (stereo not drawn) [Example 6, [5-[3-(3-Aza-bicyclo[3.1.0]hex-3-yl)-propoxy]-1-(2,2,2-trifluoro-ethyl)-1H-indol-2-yl]-morpholin-4-yl-methanone]",0.026
